The values below come from paper PMC6366974, “The curcumin analog EF24 is a novel senolytic agent” (Aging (Albany NY), 2019).

One assay deals with WI-38 IR-SCs. The experiment in a line: ROS measurement (DHR staining, flow cytometry). It counts as cell-based, human. As to conditions: 2 µM, 3 h and 6 h, DHR MFI. As for the experimental part: (§1) WI-38 NCs and IR-SCs were incubated with vehicle or 2 µM EF24 for 3, 6, 24, or 72 h. After removal of suspension cells, adherent cells were detached using 0.25% Trypsin-EDTA at 37°C for 5 min. They were rinsed with DMEM once and then incubated with pre-warmed DMEM medium containing 1 µM dihydrorhodamine 123 (DHR, Cat. No. D23806, Thermo Fisher Scientific, Waltham, MA, USA) at 37°C for 30 min in dark. After washing in 4 mL DMEM with 100 ng/mL PI, cells were centrifuged immediately at 1,000 r.p.m. for 5 min to remove PI and re-suspended in DMEM medium for flow cytometry analysis. Mean fluorescence intensity (MFI) of PI negative cells was determined using the BD LSR II flow cytometer.
For orientation: A flow cytometer gives signals particle by particle.

A further assay relates to WI-38 NCs. Put plainly: ROS measurement (DHR staining, flow cytometry). In kind it is cell-based, human. As to conditions: 2 µM, 3 h and 6 h, DHR MFI. As for the experimental part:
as §1

Another assay has as its system Mcl-1. The experiment in a line: Western blotting of protein expression in WI-38 cells. In kind it is cell-based, human. As to conditions: WI-38 IR-SCs, 0.5, 1 and 2 µM, 72 h. As to the method: (§2) After treatment with vehicle or EF24 at 0.5, 1 and 2 µM for 72 h, WI-38 NCs or IR-SCs were harvested in 1.5mL microcentrifuge tubes, and lysed in RIPA buffer with EDTA and EGTA (Cat. No. BP-115DG, Boston BioProducts, Ashland, MA, USA) supplemented with 1% protease inhibitor cocktail (Cat. No. P8340, Sigma-Aldrich, St. Louis, MO, USA) and 1% phosphatase inhibitor cocktail (Cat. No. P0044, Sigma-Aldrich, St. Louis, MO, USA). An equal amount of protein (30 µg/lane) from each cell extract was resolved on a precast gel (Mini-PROTEAN TGX™, Cat. No. 456-1094, Bio-Rad, Hercules, CA, USA). Proteins were blotted to a precut 0.2 µm PVDF membrane (Invitrolon™, Cat. No. LC2002, Life Technologies, Carlsbad, CA, USA) by electrophoresis. The membranes were blocked with 1X TBS-Tween (TBST, Cat. No. J77500, Affymetrix, Santan Clara, CA, USA) containing 5% non-fat dry milk (Cat. No. sc-2324, Santa Cruz Biotechnology, Dallas, TX, USA), and subsequently probed with primary antibodies at a predetermined optimal concentration overnight at 4°C. The primary antibodies including Bcl-xl (Cat. No. 2762), Mcl-1 (Cat. No. 5453), and Bcl-2 (Cat. No. 2872) and β-actin (Cat. No. 4970) were purchased from Cell Signaling Technology (Danvers, MA, USA). After washing with TBST for 3 times (10 min each time), the membranes were incubated with the secondary horse radish peroxidase (HRP)-linked antibody (Cat. No. 7074, Cell Signaling Technology, Danvers, MA, USA) for 2 h at room temperature. Following sufficient washing with TBST, the membranes were incubated with chemiluminescent HRP substrate (Immobilon™ Western, Cat. No. P36599, MilliporeSigma, Billerica, MA, USA) that consists of equal volume of luminol reagent and peroxide solution. The blotting membranes were recorded using autoradiography (SRX-101, Konica, Shinjuku, Tokyo, Japan). For the proteasome inhibition experiment, IR-SCs were treated with vehicle (0.1% DMSO) or 1 µM MG132 (Cat. No. S2619, Selleckchem, Houston, TX, USA) for 1 h prior to the incubation with EF24 at 0, 0.5, 1 and 2 µM for 72h.
Background: A western blot detects proteins with antibodies after separation by electrophoresis.

The test system of another assay is Bcl-2. The assay is described as above. In kind it is cell-based, human. As to conditions: WI-38 IR-SCs, 0.5, 1 and 2 µM, 72 h; did not reach statistical significance. As for the experimental part:
as §2

Another assay relates to Bcl-xl. Described as above. In kind it is cell-based, human. As to conditions: 72 h. As for the experimental part: as §2
The test system of assay [1] is IMR-90 fibroblasts IR-SCs. Put plainly: Cell viability assay (flow cytometry, PI). In kind it is cell-based. As to conditions: Homo sapiens, IMR-90, 72 h.
For another assay, the system named is cancer cells. Details: method as in PMID 15210154. The note with it: more potent than curcumin; cited from earlier work.
The subject of assay [2] is BCL-XL, MCL-1 and BCL-2 mRNA. The experiment in a line: qPCR of mRNA levels in WI-38 cells. In kind it is cell-based, human. The note with it: WI-38 NCs and IR-SCs, 72 h. As for the experimental part:
The mRNA levels were measured with qPCR, as previously described. qPCR was run with TaqMan qPCR (Cat. No. 4444965, Thermo Fisher Scientific, Waltham, MA, USA) reagents and primers (Cat. No. 4331182, Thermo Fisher Scientific, Waltham, MA, USA).

pEC50: −log10 of the molar value.

Take `O=C1/C(=C/c2ccccc2F)CNC/C1=C\c1ccccc1F` [EF24]: in the assay with WI-38 IR-SCs, the “ROS production in IR-SCs” value is “did not increase ROS production”. Moreover, in the assay with WI-38 NCs, the “ROS production in NCs” value was “did not increase ROS production”. Further, the “expression of Mcl-1 in IR-SCs” value in the assay on Mcl-1 is given as “significantly reduce”. Moreover, in the assay with Bcl-2, the “levels of Bcl-2 in IR-SCs” value is on record as “slightly reduced”. Besides, the “expression of Bcl-xl in IR-SCs” value in the assay with Bcl-xl (WI-38 IR-SCs, 0.5, 1 and 2 µM) is “significantly reduce”. Further, the “expression of Bcl-xl in NCs” value in the assay on Bcl-xl (WI-38 NCs, 0.5, 1 and 2 µM) is on record as “not in NCs”. Further, the pEC50 – broadly, −log10 of the EC50, conventionally taken in molar units – in assay [1] was 5.76. The “potency in inducing cancer cell death relative to curcumin” value with cancer cells is recorded as 10 fold. For the same compound, in assay [2], the “BCL-XL, MCL-1 and BCL-2 mRNA levels” value is on record as “did not observe any significant changes”.
